Data reported in US20260272998A1, “CHEMICALLY-MODIFIED MICROORGANISM CONTAINING A SUPEROXIDE DISMUTASE MIMIC INORGANIC COMPLEX AND USE THEREOF FOR TREATING INFLAMMATORY DISEASES” (INSTITUT NATIONAL DE RECHERCHE POUR L'AGRICULTURE, …, priority 2023, published 2026).
“Also recorded” adds a separate entry of the source.

How the values were obtained:
[1] = system: Lactobacillus plantarum MD007 strain
Method: The Lactobacillus plantarum MD007 strain is grown in MRS containing D-alanine (200 μg/mL) at 37° C.
An overnight culture is used to inoculate fresh medium in order to get an OD600 nm of 0.2, and cells are grown to an OD600 nm of 0.7 and are washed three times D-alanine free MRS medium. The washed bacteria are incubated in medium without D-alanine for 3 h at 37° C. before SOD mimic loading. After alanine starvation, the bacteria are washed three times with Hepes (0.1 M, pH 7.4) to reach a concentration about 10^9 bacteria per 200 μL.
After removal of the culture medium supernatant, bacteria are incubated with Hepes (0.1 M, pH 7.4) only, or with the tested compounds (Mn1 or Mn1C) at the desired concentration in the same buffer for two or twenty-four hours, at 37° C. Mn1C, Mn1 solutions are prepared extemporaneously to prevent degradation and manganese oxidation reactions. After cultures centrifugation and washing with Hepes (0.1 M, pH 7.4), the bacteria are resuspended in Hepes 0.1 M containing 16% glycerol to reach a concentration about 10^9 bacteria per 200 μL. […]
To assess bacteria viability, the overnight culture and the frozen vials are controlled by CFU (colony forming unit) test by diluting the preparation in PBS by serial 1/10 dilution and plating a known volume of the dilutions on the corresponding medium. […] Colonies are then counted by visual observation.

[2] = system: DBNS-induced colitis murine model; settings: administered orally in a carbonate buffer; cited from earlier work
[3] = system: intestinal epithelial cells and macrophages; settings: cited from earlier work
[4] = McCord and Fridovich assay; cited from earlier work

Compound: Cn1ccnc1CNCCN(Cc1ccccc1O)Cc1nccn1C.[Mn+2] [Mn1]
- cell viability of loaded bacteria (CFU) [1]: does not affect cell viability
- anti-inflammatory activity in DNBS-induced colitis (weight variation, macroscopic scores) [2]: exert an intracellular anti-inflammatory activity in vivo; also recorded: ameliorates DNBS-induced colitis
- antioxidant and anti-inflammatory effects on cells [3]: antioxidant and anti-inflammatory effects
- kcat for superoxide dismutation [4]: 7.10^6 M^−1·s^−1
